≈ marks a conversion by molar mass, not a printed value. Entries after “also recorded” stand apart in the source; their conditions may differ. Peptide text beside a SMILES is read from it. * marks the point of attachment. Orn(α-tetramethylguanidino) = CN(C)C(=N[C@@H](CCCN)C(=O)*)N(C)C
How the values were obtained:
S. aureus DSM 6247 [1] = assay type: cell-based, Staphylococcus aureus
Method: (§1) The minimum inhibitory concentrations (MIC) of the peptides were determined in a double assay of triplicates using a positive control sample (gentamycin) and a negative control sample (0.9% NaCl solution), according to a modified protocol from Wiegand et al. (Wiegand, 2008).
(§2) For this purpose, the peptides were dissolved in water and were diluted in a double dilution series with 1/8 MH (eight-fold diluted Mueller-Hinton-Medium—2.6 g/L, Merck) in sterile 96-well, plates (Greiner Bio-One GmbH) in twelve dilution steps from 128 μg/mL to 62.5 ng/mL. Overnight cultures were adjusted using ⅛ MHB to approximately 1.5×10^7 colony forming units per mL. Of these, 50 μL of peptide solution per well was mixed with 50 μL bacteria solution each to obtain an initial concentration of […] bacteria per well. After 20 hours of incubation at 37′C, the absorption was determined at 595 nm (microplate reader, Wallac Victor3, Perkin Elmer). The minimum inhibitory concentration was identified as the lowest peptide concentration at which no bacterial growth could be detected.
(§3) In the experiment, the antibacterial activity of the peptides according to the invention in relation to the following bacterial strains was analyzed: Pseudomonas aeruginosa PAO1 (wt strain), Pseudomonas aeruginosa DSM 9644, Staphylococcus aureus DSM 1104/ATCC 25923, Staphylococcus aureus ATCC 6247, Escherichia coli UB 1005 (F—, nalA37, metB1) and Escherichia coli ATCC25922.

E. coli DSM 1103 = assay type: cell-based, Escherichia coli
Method: as §1, §2

[2] = system: Escherichia coli ATCC25922; assay type: cell-based
[3] = system: Pseudomonas aeruginosa DSM 9644; assay type: cell-based
Method: as §1
(§4) […] Overnight cultures were adjusted using ⅛ MHB to approximately 1.5×10^7 colony forming units per mL. Of these, 50 μL of peptide solution per well was mixed with 50 μL bacteria solution each to obtain an initial concentration of […] bacteria per well. After 20 hours of incubation at 37′C, the absorption was determined at 595 nm (microplate reader, Wallac Victor3, Perkin Elmer). The minimum inhibitory concentration was identified as the lowest peptide concentration at which no bacterial growth could be detected.
as §3

K. pneumoniae DSM 681 = assay type: cell-based
Method: as §1, §4

S. aureus DSM 6247 [4] = assay type: cell-based, Staphylococcus aureus; remark: listed apart in the source
in vitro = experiment: in vitro
Method: The serum stability of selected apidaecin derivatives was also measured.

E. coli BL21AI = assay type: cell-based, Escherichia coli
[5] = cited from earlier work
[6] = system: Pseudomonas aeruginosa (luminescent strain); experiment: Substitution analysis of apidaecin 1b by peptide array, bioluminescence assay; assay type: cell-based; details: FIG. 1, luminescence, P. aeruginosa
Method: To optimize the antimicrobial activity of apidaecin 1b, a substitution analysis was carried out using this peptide (according to SEQ ID No. 2). The substitution library was synthesized by means of SPOT synthesis, and was analyzed for antibacterial activity against Pseudomonas aeruginosa by means of bioluminescence assay.
The SPOT synthesis of the peptide libraries was carried out on Whatman 50 filter paper (Sigma-Aldrich, Germany) measuring 19×29 cm by means of the Fmoc method and a SPOT synthesizer (Intavis AG, Germany) (according to Reineke U et al. 2001). The luminescence screening method that was used is based on the publication by Hilpert and Hancock (Hilpert, 2007). The peptides synthesized on the membrane were split off and the peptide spots were punched out of the peptide membrane using a hole punch, and were transferred to a 96-well microtiter plate (Corning, USA), after which 200 μL distilled water per well was added. […]
In the second step, the actual screening was performed. […] The incubation suspension (4 vol. % Log C in 100 mM Tris-HCl buffer (pH 7.3) with 40 mM sterile filtered glucose) was then distributed to 96-well plates (VWR, Germany) that are suitable for luminescence, and incubated with a concentration series of the peptide library for 4 hours at 37° C. After incubation, luminescence measurement was performed using a luminometer (Thermo, Finland).

## CC[C@H](C)[C@H](NC(=O)[C@H](Cc1ccc(O)cc1)NC(=O)[C@@H](NC(=O)[C@@H]1CCCN1C(=O)[C@H](CCCNC(=N)N)NC(=O)[C@H](CC(N)=O)NC(=O)[C@H](Cc1c[nH]c2ccccc12)NC(=O)[C@H](CCCN)N=C(N(C)C)N(C)C)C(C)C)C(=O)N1CCC[C@H]1C(=O)N[C@@H](CCCNC(=N)N)C(=O)N1CCC[C@H]1C(=O)N[C@@H](CCCNC(=N)N)C(=O)N[C@@H](CCCNC(=N)N)C(=O)N1CCC[C@H]1C(=O)N[C@@H](Cc1c[nH]cn1)C(=O)N1CCC[C@H]1C(=O)N[C@@H](CCCNC(=N)N)C(=O)N[C@@H](CC(C)C)C(=O)O [compound 87] ({Orn(α-tetramethylguanidino)}-WNRPVYIPRPRRPHPRL-OH; N-terminus and C-terminus assumed)
S. aureus DSM 6247 [1]
  MIC S. aureus DSM 6247: 16 µg/mL (≈ 6.6 µM)
E. coli DSM 1103
  MIC E. coli DSM 1103: 8 µg/mL (≈ 3.3 µM)
[2]
  MIC E. coli ATCC 25922 TSB: 8 µg/mL (≈ 3.3 µM)
[3]
  MIC P. aeruginosa DSM 9644 TSB: 8 µg/mL (≈ 3.3 µM)
  MIC P. aeruginosa PAO DSM 9644: 8 µg/mL (≈ 3.3 µM)
K. pneumoniae DSM 681
  MIC K. pneumoniae DSM 681 TSB: 4 to 8 µg/mL
S. aureus DSM 6247 [4]
  MIC S. aureus DSM 6247 MHB: 4 µg/mL (≈ 1.65 µM)
In vitro; 100% mouse serum, after 2 hours
  peptide remaining, printed in the column t1/2 100% serum: 0% after
E. coli BL21AI
  MIC E. coli BL21AI TSB: 8 µg/mL (≈ 3.3 µM)

## CC[C@H](C)[C@H](NC(=O)[C@H](Cc1ccc(O)cc1)NC(=O)[C@@H](NC(=O)[C@@H]1CCCN1C(=O)[C@H](CCCNC(=N)N)NC(=O)[C@H](CC(N)=O)NC(=O)[C@H](Cc1c[nH]c2ccccc12)NC(=O)[C@H](CCCN)N=C(N(C)C)N(C)C)C(C)C)C(=O)N1CCC[C@H]1C(=O)N[C@@H](CCCNC(=N)N)C(=O)N1CCC[C@H]1C(=O)N[C@@H](CCCNC(=N)N)C(=O)N[C@@H](CCCNC(=N)N)C(=O)N1CCC[C@H]1C(=O)N[C@@H](Cc1c[nH]cn1)C(=O)N1CCC[C@H]1C(=O)N[C@@H](CCCNC(=N)N)C(=O)N[C@@H](CC(C)C)C(N)=O [compound 89] ({Orn(α-tetramethylguanidino)}-WNRPVYIPRPRRPHPRL-NH2; N-terminus and C-terminus assumed)
S. aureus DSM 6247 [1]
  MIC S. aureus DSM 6247: 8 to 16 µg/mL
E. coli DSM 1103
  MIC E. coli DSM 1103: 8 µg/mL (≈ 3.3 µM)
[2]
  MIC E. coli ATCC 25922 TSB: 16 µg/mL (≈ 6.61 µM)
[3]
  MIC P. aeruginosa DSM 9644 TSB: 8 µg/mL (≈ 3.3 µM)
  MIC P. aeruginosa PAO DSM 9644: 4 µg/mL (≈ 1.65 µM)
K. pneumoniae DSM 681
  MIC K. pneumoniae DSM 681 TSB: >64 µg/mL
S. aureus DSM 6247 [4]
  MIC S. aureus DSM 6247 MHB: 2 µg/mL (≈ 0.826 µM)
In vitro; mouse, 25% mouse serum
  half-life: 16 ± 1 min
E. coli BL21AI
  MIC E. coli BL21AI TSB: 8 µg/mL (≈ 3.3 µM)

## CC[C@H](C)[C@H](NC(=O)[C@@H]1CCCN1C(=O)[C@H](CCCNC(=N)N)NC(=O)[C@@H]1CCCN1C(=O)[C@H](Cc1cnc[nH]1)NC(=O)[C@H](CO)NC(=O)[C@@H](NC(=O)[C@@H]1CCCN1C(=O)[C@H](CCCNC(=N)N)NC(=O)[C@@H]1CCCN1C(=O)[C@H](CO)NC(=O)[C@H](Cc1ccc(O)cc1)NC(=O)[C@@H]1CCCN1C(=O)[C@H](CCCNC(=N)N)NC(=O)[C@@H]1CCCN1C(=O)[C@H](CCCCN)NC(=O)CN)[C@@H](C)O)C(=O)N[C@@H](CCCNC(=N)N)C(=O)N[C@H](C(=O)O)C(C)C [drosocin] (H-GKPRPYSPRPTSHPRPIRV-OH)
[5]
  breakdown in mammalian serum (25%): broken down within one hour

## gu-ONNRPVYIPRPRPPHPRL-NH2
25% mouse serum
  fragment found: gu-O1-R17

## gu-ONNRPVYIPRPRPPHPRL-OH
100% mouse serum
  fragment found: gu-O1-R17

## gu-OWNRPVYIPRPRPPHPRL-OH
100% mouse serum
  fragment found: gu-O1-R17

## gu-OWNRPVYIPRPRRPHPRL-NH2
25% mouse serum
  fragment found: gu-O1-R17; also recorded: gu-O1-R12

## gu-OWNRPVYIPRPRRPHPRL-OH
100% mouse serum
  fragment found: gu-O1-R12 (Api341 analogue)

## native apidaecin sequence that is substituted at position 1 with cysteine: apidaecin 1b (SEQ ID No. 2) substituted at position 1 with cysteine, from the SPOT substitution library (CNNRPVYIPQPRPPHPRL; listed as Apis mellifera)
[6]
  substitution analysis value (measure of the activity; less than 1 = enhancement relative to native apidaecin): 0.55

— patent US9556228B2 (Universitaet Leipzig, priority 2011, dated 2017)
